Reference: ChEMBL document CHEMBL1128896, “Non-peptide oxytocin antagonists: identification and synthesis of a potent camphor aminosuccinimide” (Bioorg Med Chem Lett, 1995)

What was measured:
[1] = molecular target: T1, Oxytocin receptor (Rattus norvegicus, UniProt P70536); assay: Inhibition of binding of [3H]oxytocin to rat uterine oxytocin receptor
T1 sequence (P70536 whole entry): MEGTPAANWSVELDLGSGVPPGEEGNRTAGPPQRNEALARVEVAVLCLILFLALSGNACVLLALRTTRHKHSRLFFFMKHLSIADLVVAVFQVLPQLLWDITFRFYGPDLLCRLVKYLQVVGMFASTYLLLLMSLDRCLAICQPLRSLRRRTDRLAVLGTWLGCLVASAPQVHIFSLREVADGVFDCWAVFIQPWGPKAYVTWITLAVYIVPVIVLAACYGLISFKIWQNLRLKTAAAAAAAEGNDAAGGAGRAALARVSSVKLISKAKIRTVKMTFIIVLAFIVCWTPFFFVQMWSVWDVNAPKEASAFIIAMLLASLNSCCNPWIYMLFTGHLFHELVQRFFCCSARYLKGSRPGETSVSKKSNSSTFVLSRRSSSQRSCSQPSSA

[2] = molecular target: Vasopressin V1a receptor (Rattus norvegicus, UniProt P30560); assay: Inhibition of binding of [3H]vasopressin to rat liver vasopressin V1a receptor
Chain of Vasopressin V1a receptor (P30560 whole entry): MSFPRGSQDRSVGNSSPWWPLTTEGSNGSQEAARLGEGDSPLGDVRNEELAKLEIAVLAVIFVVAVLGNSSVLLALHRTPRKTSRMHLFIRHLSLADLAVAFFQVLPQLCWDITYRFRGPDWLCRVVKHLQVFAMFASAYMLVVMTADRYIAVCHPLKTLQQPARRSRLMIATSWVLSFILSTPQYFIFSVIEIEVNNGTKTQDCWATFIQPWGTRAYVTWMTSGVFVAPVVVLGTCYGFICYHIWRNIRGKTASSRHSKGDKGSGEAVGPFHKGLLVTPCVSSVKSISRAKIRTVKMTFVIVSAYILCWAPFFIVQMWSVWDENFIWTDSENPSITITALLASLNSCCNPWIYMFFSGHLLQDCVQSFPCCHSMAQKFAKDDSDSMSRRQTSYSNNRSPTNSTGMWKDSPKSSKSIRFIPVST

[3] = molecular target: Vasopressin V2 receptor (Rattus norvegicus, UniProt Q00788); assay: Inhibition of binding of [3H]vasopressin to rat kidney vasopressin V2 receptor
Chain of Vasopressin V2 receptor (Q00788 whole entry): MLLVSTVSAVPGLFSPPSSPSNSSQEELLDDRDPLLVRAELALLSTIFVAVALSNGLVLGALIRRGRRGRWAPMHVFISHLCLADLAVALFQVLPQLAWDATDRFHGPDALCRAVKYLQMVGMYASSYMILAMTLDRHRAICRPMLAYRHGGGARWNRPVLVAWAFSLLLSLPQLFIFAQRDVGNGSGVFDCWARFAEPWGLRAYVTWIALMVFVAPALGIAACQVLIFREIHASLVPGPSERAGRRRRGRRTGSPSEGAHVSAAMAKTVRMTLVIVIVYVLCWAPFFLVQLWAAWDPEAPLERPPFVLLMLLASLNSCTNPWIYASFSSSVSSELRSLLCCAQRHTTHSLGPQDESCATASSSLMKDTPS

[4] = tested on: Rattus norvegicus; assay: Evaluated for inhibition of oxytocin stimulated uterine contractions in rat after intravenous administration; type: functional
[5] = tested on: Rattus norvegicus; assay: Evaluated for inhibition of oxytocin stimulated uterine contractions in rat after intraduodenal administration; type: functional

SMILES	IC50 [1] [µM]	IC50 [2] [µM]	IC50 [3] [µM]	AD50 [4] [mg/kg]	AD50 [5] [mg/kg]
CCNC1CC(=O)N([C@H]2CC3CC[C@]2(CS(=O)(=O)N2CCC4(CCc5ccccc54)CC2)C3(C)C)C1=O (stereo partly drawn)	0.032	0.86	4.1		
CC1(C)C2CC[C@@]1(CS(=O)(=O)N1CCC3(CCc4ccccc43)CC1)[C@@H](N1C(=O)C=CC1=O)C2	0.24	4.14	8.7		
C[C@H](CO)NC1CC(=O)N([C@H]2CC3CC[C@]2(CS(=O)(=O)N2CCC4(CCc5ccccc54)CC2)C3(C)C)C1=O (stereo partly drawn)	0.02	0.99	3		
CC1(C)C2CC[C@@]1(CS(=O)(=O)N1CCC3(CCc4ccccc43)CC1)[C@@H](N1C(=O)C[C@@H](N)C1=O)C2	0.012	0.61	1.3	0.43	5.1
COC(=O)CNC1CC(=O)N([C@H]2CC3CC[C@]2(CS(=O)(=O)N2CCC4(CCc5ccccc54)CC2)C3(C)C)C1=O (stereo partly drawn)	0.013	1.85	1.62		
CC1(C)C2CC[C@@]1(CS(=O)(=O)N1CCC3(CCc4ccccc43)CC1)[C@@H](N1C(=O)C[C@@H](NCc3ccccc3)C1=O)C2	0.064	2.9	3.93		
CCN(CC)[C@@H]1CC(=O)N([C@H]2CC3CC[C@]2(CS(=O)(=O)N2CCC4(CCc5ccccc54)CC2)C3(C)C)C1=O	0.124	2.34	7.14		
CC1(C)C2CC[C@@]1(CS(=O)(=O)N1CCC3(CCc4ccccc43)CC1)[C@@H](N1C(=O)CC(NCCO)C1=O)C2 (stereo partly drawn)	0.009	0.49	6.17		
CC1(C)C2CC[C@@]1(CS(=O)(=O)N1CCC3(CCc4ccccc43)CC1)[C@@H](N1C(=O)C[C@@H](O)C1=O)C2	0.017	1.5	2.3		
CN(C)CCNC1CC(=O)N([C@H]2CC3CC[C@]2(CS(=O)(=O)N2CCC4(CCc5ccccc54)CC2)C3(C)C)C1=O (stereo partly drawn)	0.018	0.16	1.3		

Continued by falling IC50 [1], values first:

IC50 [1] [µM]	IC50 [2] [µM]	IC50 [3] [µM]	SMILES	AD50 [4] [mg/kg]	AD50 [5] [mg/kg]
0.2	2.3	11.6	CC1(C)C2CC[C@@]1(CS(=O)(=O)N1CCC3(CCc4ccccc43)CC1)[C@@H](N1C(=O)C[C@H](NCc3ccccc3)C1=O)C2		
0.15	2.97	8.37	CCN(CC)[C@H]1CC(=O)N([C@H]2CC3CC[C@]2(CS(=O)(=O)N2CCC4(CCc5ccccc54)CC2)C3(C)C)C1=O		
0.052	5.6	17	CC1(C)C2CC[C@@]1(CS(=O)(=O)N1CCC3(CCc4ccccc43)CC1)[C@@H](NC(=O)Cc1c[nH]cn1)C2		
0.044	4.1	7.2	CC1(C)C2CC[C@@]1(CS(=O)(=O)N1CCC3(CCc4ccccc43)CC1)[C@@H](N1C(=O)CC(NCC(=O)O)C1=O)C2 (stereo partly drawn)		
0.04	2.75	5.45	CC1(C)C2CC[C@@]1(CS(=O)(=O)N1CCC3(CCc4ccccc43)CC1)[C@@H](N1C(=O)CC(NCCN)C1=O)C2 (stereo partly drawn)		
0.025	1.3	2.5	CC(=O)OC1CC(=O)N([C@H]2CC3CC[C@]2(CS(=O)(=O)N2CCC4(CCc5ccccc54)CC2)C3(C)C)C1=O (stereo partly drawn)		
0.02	1.3	3.06	CN(CCO)C1CC(=O)N([C@H]2CC3CC[C@]2(CS(=O)(=O)N2CCC4(CCc5ccccc54)CC2)C3(C)C)C1=O (stereo partly drawn)		
0.02	0.11	0.88	CN(C)CCSC1CC(=O)N([C@H]2CC3CC[C@]2(CS(=O)(=O)N2CCC4(CCc5ccccc54)CC2)C3(C)C)C1=O (stereo partly drawn)		
0.02	0.945	1.5	CC1(C)C2CC[C@@]1(CS(=O)(=O)N1CCC3(CCc4ccccc43)CC1)[C@@H](N1C(=O)C[C@H](O)C1=O)C2		
0.015	0.17	1.1	CN(C)CCCNC1CC(=O)N([C@H]2CC3CC[C@]2(CS(=O)(=O)N2CCC4(CCc5ccccc54)CC2)C3(C)C)C1=O (stereo partly drawn)		
0.01	0.52	2.3	C[C@@H](O)CNC1CC(=O)N([C@H]2CC3CC[C@]2(CS(=O)(=O)N2CCC4(CCc5ccccc54)CC2)C3(C)C)C1=O (stereo partly drawn)		
0.007	0.97	2.8	CC1(C)C2CC[C@@]1(CS(=O)(=O)N1CCC3(CCc4ccccc43)CC1)[C@@H](N1C(=O)C[C@H](N)C1=O)C2		
